Read-outs that look alike come from different tables or passages of the source.

One assay addresses CK1ε (Homo sapiens (Human), UniProt P49674). The assay can be described thus: CK1ε kinase assay (Caliper LABCHIP electrophoretic separation of fluoresceinated peptide substrate and product). The settings on record: read-out: CK1ε (IC50). Format: biochemical. The method in brief: (§1)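 Kinase reactions ran 22 h at room temperature, were stopped with EDTA, and phosphorylated product was separated electrophoretically from unphosphorylated fluoresceinated peptide. Compounds were tested at eleven concentrations from 10 mM DMSO stocks. IC50 by non-linear regression.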

A further assay has as its target CK1δ (Homo sapiens (Human), UniProt P48730). The assay can be described thus: CK1δ kinase assay (Caliper LABCHIP electrophoretic separation of fluoresceinated peptide substrate and product). Format: biochemical. The settings on record: 200 pM CK1δ, 50 μM ATP, 1.5 μM peptide substrate, 22 hours at room temperature; read-out: CK1δ (IC50). The method in brief:
as §1

The mark [1] stands for this setting: 200 pM CK1ε, 50 μM ATP, 1.5 μM peptide substrate, 22 hours at room temperature.

CK1ε, sequence (P49674 whole entry): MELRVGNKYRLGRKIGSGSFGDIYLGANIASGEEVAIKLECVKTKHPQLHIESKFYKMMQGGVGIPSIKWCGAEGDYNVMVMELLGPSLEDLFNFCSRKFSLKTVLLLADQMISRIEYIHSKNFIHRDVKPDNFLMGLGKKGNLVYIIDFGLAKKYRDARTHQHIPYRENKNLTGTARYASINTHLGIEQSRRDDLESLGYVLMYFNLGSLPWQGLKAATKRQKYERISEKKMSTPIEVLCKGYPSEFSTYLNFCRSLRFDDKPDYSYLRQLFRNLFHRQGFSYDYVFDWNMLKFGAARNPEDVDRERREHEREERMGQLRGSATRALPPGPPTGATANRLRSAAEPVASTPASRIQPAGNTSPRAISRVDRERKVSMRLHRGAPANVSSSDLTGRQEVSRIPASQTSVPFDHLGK
CK1δ, sequence (P48730 whole entry): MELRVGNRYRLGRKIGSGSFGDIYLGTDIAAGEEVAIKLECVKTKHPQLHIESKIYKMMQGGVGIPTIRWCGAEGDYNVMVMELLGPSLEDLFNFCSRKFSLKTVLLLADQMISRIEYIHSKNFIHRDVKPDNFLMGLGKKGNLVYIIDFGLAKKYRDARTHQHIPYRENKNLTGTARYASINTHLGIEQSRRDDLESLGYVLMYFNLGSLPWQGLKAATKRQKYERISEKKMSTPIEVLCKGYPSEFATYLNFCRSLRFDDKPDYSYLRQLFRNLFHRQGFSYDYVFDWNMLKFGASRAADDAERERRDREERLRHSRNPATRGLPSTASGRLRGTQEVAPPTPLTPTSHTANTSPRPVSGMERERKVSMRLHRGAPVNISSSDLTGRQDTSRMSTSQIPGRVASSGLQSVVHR

In general, IC50 refers to the midpoint of a concentration-inhibition curve. Take `Cc1cc(-c2nn3c(c2C(N)=O)CN(C(=O)Nc2ccc4c(c2)CS(=O)(=O)C4)CC3)ccc1F` [Compound 246, N^5-(2,2-Dioxido-1,3-dihydrobenzo[c]thiophen-5-yl)-2-(4-fluoro-3-methylphenyl)-6,7-dihydropyrazolo[1,5-a] pyrazine-3,5(4H)-dicarboxamide]: the 50% inhibitory concentration (IC50) at CK1ε (setting [1]) and on CK1δ was 0.01 to 10 nM each time.

Take `Cc1cc(-c2nn3c(c2C(N)=O)CN(C(=O)Nc2ccc4c(c2)OC(F)(F)O4)CC3)ccc1F` [Compound 247, N^5-(2,2-Difluorobenzo [d][1,3]dioxol-5-yl)-2-(4-fluoro-3-methylphenyl)-6,7-dihydropyrazolo[1,5-a]pyrazine-3,5(4H)-dicarboxamide]: the half-inhibitory concentration (IC50) on CK1ε (setting [1]) and on CK1δ was 0.01 to 10 nM each time.

Consider `Cc1cc(-c2nn3c(c2C(N)=O)CN(C(=O)Nc2ccc(C#N)cc2)CC3)ccc1F` [Compound 248, N^5-(4-Cyanophenyl)-2-(4-fluoro-3-methylphenyl)-6,7-dihydropyrazolo[1,5-a]pyrazine-3,5(4H)-dicarboxamide], for which the IC50 at CK1ε (setting [1]) and on CK1δ was 0.01 to 10 nM throughout.

In the case of `Cc1ccc(-c2nn3c(c2C(N)=O)CN(C(=O)Nc2ccc(C#N)c(C)c2)CC3)cc1Cl` [Compound 249, 2-(3-Chloro-4-methylphenyl)-N^5-(4-cyano-3-methylphenyl)-6,7-dihydropyrazolo[1,5-a]pyrazine-3,5(4H)-dicarboxamide], the 50% inhibitory concentration (IC50) on CK1ε (setting [1]) and at CK1δ was 0.01 to 10 nM in each case.

Turning to `Cc1ccc(-c2nn3c(c2C(N)=O)CN(C(=O)Nc2ccc4c(c2)OC(F)(F)O4)CC3)cc1Cl` [Compound 250, 2-(3-Chloro-4-methylphenyl)-N^5-(2,2-difluorobenzo[d][1,3]dioxol-5-yl)-6,7-dihydropyrazolo[1,5-a] pyrazine-3,5(4H)-dicarboxamide], the IC50 on CK1ε (setting [1]) and on CK1δ was 0.01 to 10 nM throughout.

Take `Cc1ccc(-c2nn3c(c2C(N)=O)CN(C(=O)Nc2ccc4c(c2)CS(=O)(=O)C4)CC3)cc1Cl` [Compound 251, 2-(3-Chloro-4-methylphenyl)-N^5-(2,2-dioxido-1,3-dihydrobenzo[c]thiophen-5-yl)-6,7-dihydropyrazolo[1,5-a] pyrazine-3,5(4H)-dicarboxamide]: the IC50 at CK1ε (setting [1]) and at CK1δ was 0.01 to 10 nM throughout.

As for `Cc1ccc(-c2nn3c(c2C(N)=O)CN(C(=O)Nc2ccc(C#N)c(C(F)(F)F)c2)CC3)cc1Cl` [Compound 253, 2-(3-Chloro-4-methylphenyl)-N^5-(4-cyano-3-(trifluoro-methyl)phenyl)-6,7-dihydropyrazolo [1,5-a]pyrazine-3,5(4H)-dicarboxamide], the IC50 at CK1ε and on CK1δ was 0.01 to 10 nM in each case.

Turning to `Cc1ccc(-c2nn3c(c2C(N)=O)CN(C(=O)Nc2ccc4ncsc4c2)CC3)cc1Cl` [Compound 254, N^5-(Benzo[d]thiazol-6-yl)-2-(3-chloro-4-methylphenyl)-6,7-dihydropyrazolo[1,5-a] pyrazine-3,5(4H)-dicarboxamide], the IC50 on CK1ε (setting [1]) and at CK1δ was 0.01 to 10 nM throughout.

As for `Cc1ccc(-c2nn3c(c2C(N)=O)CN(C(=O)Nc2ccc(C#N)c(F)c2)CC3)cc1Cl` [Compound 255, 2-(3-Chloro-4-methylphenyl)-N^5-(4-cyano-3-fluorophenyl)-6,7-dihydropyrazolo [1,5-a]pyrazine-3,5(4H)-dicarboxamide], the IC50 at CK1ε (setting [1]) and at CK1δ was 0.01 to 10 nM throughout.

Consider `Cc1ccc(-c2nn3c(c2C(N)=O)CN(C(=O)Nc2ccc(C#N)c(Cl)c2)CC3)cc1Cl` [Compound 256, N^5-(3-Chloro-4-cyanophenyl)-2-(3-chloro-4-methylphenyl)-6,7-dihydropyrazolo[1,5-a] pyrazine-3,5(4H)-dicarboxamide], for which the half-maximal inhibitory concentration (IC50) at CK1ε (setting [1]) and at CK1δ was 0.01 to 10 nM each time.

In the case of `N#Cc1ccc(NC(=O)N2CCn3nc(-c4cc(Cl)c(F)c(Cl)c4)c(C(N)=O)c3C2)cc1` [Compound 259, N^5-(4-Cyanophenyl)-2-(3,5-dichloro-4-fluorophenyl)-6,7-dihydropyrazolo[1,5-a]pyrazine-3,5(4H)-dicarboxamide], the IC50 at CK1ε (setting [1]) and at CK1δ was 0.01 to 10 nM each time.

The values are drawn from US9598423B2 (BRISTOL-MYERS SQUIBB COMPANY, priority 2013, dated 2017).
